Data published in patent US6914045B2, “Glycopeptide antibiotics” (Wyeth Holdings Corporation, priority 2001, dated 2005).

Columns and labels:
Experiment in all cases: in vitro antibacterial evaluation, MIC by broth dilution
Assay type in all cases: cell-based
Enterococcus sp. = conditions: broth dilution, 18 hours at 35° C.
In short: (§1)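 MIC = lowest antibiotic concentration preventing visible growth; inoculum 5×10^5 CFU/mL; drug range 64-0.06 μg/mL; Muller-Hinton II […]; NCCLS M7-A2 guidance.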

Escherichia coli = conditions: 18 hours at 35° C., strain ATCC 25922
In short: as §1

Staphylococcus sp. = conditions: broth dilution, 18 hours at 35° C.
In short: as §1

Streptococcus sp. = conditions: broth dilution, 18 hours at 35° C.
In short: as §1

CC(c1ccccc1)C1NC(=O)CNC(=O)C(CO)NC(=O)C(C(O)C2CNC(=N)N2C2OC(CO)C(O)C(O)C2O)NC(=O)C(C(O)C2CNC(=N)N2)NC(=O)C(Cc2ccc(OC3OC(CO)C(OC4OC(COC(=O)OCc5ccccc5)C(O)C(O)C4O)C(O)C3O)cc2)NC1=O (stereo not drawn) [Example 101a]
16 mg/L: MIC Enterococcus avium (GC 4558) (Enterococcus sp.; Enterococcus avium (GC 4558)) | MIC Enterococcus faecalis (ATCC 29212) (Enterococcus sp.; Enterococcus faecalis (ATCC 29212)) | MIC Enterococcus faecalis (GC 4552) (Enterococcus sp.; Enterococcus faecalis (GC 4552)) | MIC Enterococcus faecalis (GC 4553) (Enterococcus sp.; Enterococcus faecalis (GC 4553)) | MIC Enterococcus faecalis (GC 4554) (Enterococcus sp.; Enterococcus faecalis (GC 4554)) | MIC Enterococcus faecium (GC 2243) (Enterococcus sp.; Enterococcus faecium (GC 2243)) | MIC Enterococcus faecium (GC 4556) (Enterococcus sp.; Enterococcus faecium (GC 4556)) | MIC Enterococcus faecalis (ATCC 29212) (Enterococcus sp.; strain ATCC 29212) | MIC Enterococcus faecium (GC 2243) (Enterococcus sp.; strain GC 2243) | MIC Enterococcus faecalis (GC 4552) (Enterococcus sp.; strain GC 4552) | MIC Enterococcus faecalis (GC 4553) (Enterococcus sp.; strain GC 4553) | MIC Enterococcus faecalis (GC 4554) (Enterococcus sp.; strain GC 4554) | MIC Enterococcus faecium (GC 4556) (Enterococcus sp.; strain GC 4556) | MIC Enterococcus avium (GC 4558) (Enterococcus sp.; strain GC 4558)
1 mg/L: MIC Coagulase Negative Staphylococcus (GC 4547) (Staphylococcus sp.) | MIC Coagulase Negative Staphylococcus (GC 4548) (Staphylococcus sp.) | MIC Coagulase Negative Staphylococcus (GC 4549) (Staphylococcus sp.) | MIC Coagulase Negative Staphylococcus (ID-3941) (Staphylococcus sp.) | MIC Staphylococcus haemolyticus (GC 4546) (Staphylococcus sp.) | MIC Staphylococcus haemolyticus (GC 4546) (Staphylococcus sp.; strain GC 4546) | MIC Coagulase Negative Staphylococcus (GC 4547) (Staphylococcus sp.; strain GC 4547) | MIC Coagulase Negative Staphylococcus (GC 4548) (Staphylococcus sp.; strain GC 4548) | MIC Coagulase Negative Staphylococcus (GC 4549) (Staphylococcus sp.; strain GC 4549) | MIC Coagulase Negative Staphylococcus (ID-3941) (Staphylococcus sp.; strain ID-3941) | MIC Streptococcus agalactiae (GC 4564) (Streptococcus sp.; Streptococcus agalactiae (GC 4564)) | MIC Streptococcus pyogenes (ID-3187) (Streptococcus sp.; Streptococcus pyogenes (ID-3187)) | MIC Streptococcus agalactiae (GC 4564) (Streptococcus sp.; strain GC 4564) | MIC Streptococcus pyogenes (ID-3187) (Streptococcus sp.; strain ID-3187)
8 mg/L: MIC Enterococcus faecalis (GC 2242) (Enterococcus sp.; Enterococcus faecalis (GC 2242)) | MIC Enterococcus faecalis (GC 2242) (Enterococcus sp.; strain GC 2242) | MIC Staphylococcus aureus-SMITH (GC 4543) (Staphylococcus sp.) | MIC Staphylococcus aureus-SMITH (GC 4543) (Staphylococcus sp.; strain SMITH GC 4543)
64 mg/L: MIC Escherichia coli (ATCC 25922) (Escherichia coli)
<0.5 mg/L: MIC Streptococcus pneumoniae (GC 4565) (Streptococcus sp.; Streptococcus pneumoniae (GC 4565)) | MIC Streptococcus pneumoniae (GC 4565) (Streptococcus sp.; strain GC 4565)
4 mg/L: MIC Staphylococcus aureus (GC 1131) (Staphylococcus sp.) | MIC Staphylococcus aureus (GC 4542) (Staphylococcus sp.) | MIC Staphylococcus aureus (GC 4544) (Staphylococcus sp.) | MIC Staphylococcus aureus (GC 4545) (Staphylococcus sp.) | MIC Staphylococcus aureus (GC 1131) (Staphylococcus sp.; strain GC 1131) | MIC Staphylococcus aureus (GC 4542) (Staphylococcus sp.; strain GC 4542) | MIC Staphylococcus aureus (GC 4544) (Staphylococcus sp.; strain GC 4544) | MIC Staphylococcus aureus (GC 4545) (Staphylococcus sp.; strain GC 4545)
2 mg/L: MIC Enterococcus faecium (GC 4557) (Enterococcus sp.; Enterococcus faecium (GC 4557)) | MIC Enterococcus faecium (GC 4557) (Enterococcus sp.; strain GC 4557) | MIC Coagulase Negative Staphylococcus (GC 4551) (Staphylococcus sp.) | MIC Staphylococcus aureus (ATCC 29213) (Staphylococcus sp.) | MIC Staphylococcus aureus (GC 4541) (Staphylococcus sp.) | MIC Coagulase Negative Staphylococcus (GC 4551) (Staphylococcus sp.; strain GC 4551) | MIC Staphylococcus aureus (ATCC 29213) (Staphylococcus sp.; strain ATCC 29213) | MIC Staphylococcus aureus (GC 4541) (Staphylococcus sp.; strain GC 4541)
